Laboratory results reported in paper PMC9573696, “Experimental Examination of Solubility and Lipophilicity as Pharmaceutically Relevant Points of Novel Bioactive Hybrid Compounds” (Molecules, 2022).
In brackets after ≈: the same amount, converted by molar mass. Read-outs that look alike come from different tables or passages of the source.

Assays:
C. glabrata 61L = assay: In vitro antifungal activity, microbroth dilution (MIC); type: cell-based; conditions: for MIC: Nakaseomyces glabratus, 24 h
Description: (§1) The in vitro antifungal screening results of synthesized compounds was evaluated against three fungal strains: C. parapsilosis ATCC 22019, C. utilis 84, and C. glabrata 61L are summarized in Table 1.
(§2) The in vitro antifungal activity of the target compounds was measured by means of the minimal inhibitory concentrations (MIC) with fluconazole as the control drug. Procedure was carried out by the microbroth dilution method in 96-well plates according to the recommendations of the Clinical and Laboratory Standards Institute. The detailed information was reported previously. The investigated pathogenic species included C. parapsilosis ATCC 22019, C. utilis 84 and C. glabrata 61. The sensitivity was evaluated visually, after the incubation at 35 °C for 24 h and the value was compared with the growth density in the reference culture without the sample. Each test was conducted in triplicate.

[1] = system: C. parapsilosis ATCC 22019; assay: as above; type: cell-based; conditions: for advantage over fluconazole: MIC ratio; for MIC: Lodderomyces parapsilosis
Description: as §1, §2

C. utilis 84 = assay: as above; type: cell-based
Description: as §1, §2

[2] = Partition in system 1-octanol/buffer pH 7.4, shake-flask method; type: physicochemical; conditions: for sb × 10^6 (concentration in buffer) / so × 10^3 (concentration in 1-octanol) / xb × 10^7 (mole fraction in buffer) / xo × 10^4 (mole fraction in 1-octanol) / logPo/b / sb × 10^5 (concentration in buffer): 1-octanol/buffer pH 7.4; for logPo/b / logD at 2 days: from concentrations in mol∙L^−1; for logP at 2 days: from concentrations in mole fraction
Description: The partition coefficients of the new hybrid compounds in the model system 1-octanol/buffer pH 7.4 as a lipophilicity surrogate were determined experimentally. […] It is the lipophilic properties that allow the hybrids to move from the water phase to the less hydrophilic octanol phase, where the solute–solvent intermolecular interactions are more favourable. According to the results shown in Table 5, the order of changes in the partition coefficients logPo/b at T = 298.15 K, depending on the substituent nature, is expressed as the inequality: Cl- (1.65) < F- (2.40) < CH3- (2.50). Compounds I and II are the most lipophilic in the series of the studied substances, whereas the introduction of a chlorine atom considerably lowers the partition coefficient (~0.8 log units). This fact agrees with the common concept that lipophilic groups are usually hydrocarbon or fluorine-containing radicals. […] For drugs with such partition coefficients, there is a good balance between the solubility and permeability through passive diffusion and minimum metabolism due to the low binding capacity with enzymes.
The octanol/buffer pH 7.4 partition coefficient logPO/B is measured in a static mode using the shake-flask method. The procedure has been presented as standard in the Organization for Economic Cooperation and Development (OECD) guidelines for testing chemicals. The equipment described above was also used for the determination of the 1-octanol/water partition coefficients. […] The correctness of the obtained value of each compound was verified by checking the mass balance of the starting amount of the compound and the total amount of the compound partitioned between the two phases.
To aim evaluated transfer (partition) thermodynamic functions, the 1-octanol/buffer partition coefficients P^* o/b as the ratio of equilibrium concentrations in the organic (xo) and aqueous phases (xb) expressed in mole fractions were calculated: P* o/b = xo/xb(12)

[3] = Thermodynamic functions of transfer 1-octanol/buffer pH 7.4; type: physicochemical; conditions: 298.15 K
Description: The temperature variation of the partition coefficient provides enthalpic and entropic contributions to the free energy of transfer. The thermodynamic transfer functions for hybrids I–III in the 1-octanol/buffer pH 7.4 system were calculated by Equations (12)–(16) and are summarized in Table 6. The standard Gibbs energy values for all the compounds are negative. Therefore, the transfer from the aqueous medium to the organic phase within the studied temperature range is thermodynamically favourable and spontaneous. The standard transfer enthalpies of all the studied compounds are positive, which means the process is endothermic. Energy is consumed during the transfer to overcome the hydrophobic effects in water (destruction of the molecule solvate shell structure), destruction of the solvent–solute interactions in the aqueous medium and creation of a cavity in the organic phase where the solute molecules can enter.
The standard change in Gibbs free energy of transfer (∆trG^o) from the buffer to the organic phase was calculated by Equation (14):∆trG^o = −RTlnP*o/b(14)
The standard change entropy of transfer (∆trS^o) is determined as follows:∆trS^o = (∆trH^o − ∆trG^o)/T(15)

[4] = pH 7.4, 1-octanol/buffer pH 7.4, 293.15 K
[5] = pH 7.4, 1-octanol/buffer pH 7.4, 298.15 K
[6] = pH 7.4, 1-octanol/buffer pH 7.4, 303.15 K
[7] = pH 7.4, 1-octanol/buffer pH 7.4, 313.15 K
[8] = 1-octanol/buffer pH 7.4, pH 7.4, 1-octanol/buffer pH 7.4, 293.15 K
[9] = 1-octanol/buffer pH 7.4, pH 7.4, 1-octanol/buffer pH 7.4, 303.15 K
[10] = 1-octanol/buffer pH 7.4, pH 7.4, 1-octanol/buffer pH 7.4, 313.15 K

| Compound | advantage over fluconazole ([1]; C. parapsilosis ATCC 22019) [fold] | so × 10^3 (concentration in 1-octanol) ([2]; 293.15 K) | xb × 10^7 (mole fraction in buffer) ([2]; 293.15 K) | xo × 10^4 (mole fraction in 1-octanol) ([2]; 293.15 K) | so × 10^3 (concentration in 1-octanol) ([2]; 298.15 K) | xb × 10^7 (mole fraction in buffer) ([2]; 298.15 K) | xo × 10^4 (mole fraction in 1-octanol) ([2]; 298.15 K) | so × 10^3 (concentration in 1-octanol) ([2]; 303.15 K) | xo × 10^4 (mole fraction in 1-octanol) ([2]; 303.15 K) | so × 10^3 (concentration in 1-octanol) ([2]; 308.15 K) | xb × 10^7 (mole fraction in buffer) ([2]; 308.15 K) | xo × 10^4 (mole fraction in 1-octanol) ([2]; 308.15 K) | logPo/b ([2]; 308.15 K) | so × 10^3 (concentration in 1-octanol) ([2]; 313.15 K) | xb × 10^7 (mole fraction in buffer) ([2]; 313.15 K) | xo × 10^4 (mole fraction in 1-octanol) ([2]; 313.15 K) | T∆trS^o [3] [kcal/mol] | ∆trG^o [3] [kcal/mol] | ∆trH^o [3] [kcal/mol] | ∆trS^o [3] [J·mol^−1·K^−1] | further results |
| --- | --- | --- | --- | --- | --- | --- | --- | --- | --- | --- | --- | --- | --- | --- | --- | --- | --- | --- | --- | --- | --- |
| Cc1ccc(-n2c(=S)sc3c(=O)n(CCCN4CCN(CC(O)(Cn5cncn5)c5ccc(F)cc5F)CC4)cnc32)cc1 (centres unmarked) [I, 6-[3-[4-[2-(2,4-difluorophenyl)-2-hydroxy-3-(1H-1,2,4-triazol-1-yl)propyl]-1-piperazinyl]propyl]-2,3-dihydro-3-(4-methylphenyl)-2-thioxo-thiazolo[4,5-d]pyrimidin-7(6H)-one] | 4 | 2.88 mol∙L^−1 (printed as so × 10^3 | 1.82 mole fraction (printed as xb × | 4.54 mole fraction (printed as xo × | 2.88 mol∙L^−1 (printed as so × 10^3 | 1.63 mole fraction (printed as xb × | 4.57 mole fraction (printed as xo × | 2.88 mol∙L^−1 (printed as so × 10^3 | 4.59 mole fraction (printed as xo × | 2.88 mol∙L^−1 (printed as so × 10^3 | 1.29 mole fraction (printed as xb × | 4.61 mole fraction (printed as xo × | 2.60 | 2.88 mol∙L^−1 (printed as so × 10^3 | 1.15 mole fraction (printed as xb × | 4.63 mole fraction (printed as xo × | 9.08 ± 0.22 | -4.68 ± 0.12 | 4.37 ± 0.072 | 127.4 ± 4.7 | MIC relative to the reference value (fluconazole) (C. glabrata 61L; C. glabrata 61L): four times less; MIC (C. glabrata 61L; 61L): 2 µg/mL (≈ 3.13 µM); MIC ([1]; ATCC22019, 24 h): 0.5 µg/mL (≈ 0.783 µM); MIC (C. utilis 84; Williopsis jadinii, 84, 24 h): 4 µg/mL (≈ 6.26 µM); sb × 10^6 (concentration in buffer) ([2]; 293.15 K): 10.2 mol∙L^−1 (printed as sb × 10^6; sb × 10^6 (concentration in buffer) ([2]; 298.15 K): 9.11 mol∙L^−1 (printed as sb × 10^6; sb × 10^6 (concentration in buffer) ([2]; 303.15 K): 7.95 mol∙L^−1 (printed as sb × 10^6; xb × 10^7 (mole fraction in buffer) ([2]; 303.15 K): 1.43 mole fraction (printed as xb ×; sb × 10^6 (concentration in buffer) ([2]; 308.15 K): 7.16 mol∙L^−1 (printed as sb × 10^6; sb × 10^6 (concentration in buffer) ([2]; 313.15 K): 6.38 mol∙L^−1 (printed as sb × 10^6; logP at 2 days [2, 4]: 3.39; logD at 2 days [2, 4]: 2.45; logP at 2 days [2, 5]: 3.44; logD at 2 days [2, 5]: 2.5; logP at 2 days [2, 6]: 3.5; logD at 2 days [2, 6]: 2.56; logP at 2 days ([2]; pH 7.4, 1-octanol/buffer pH 7.4, 308.15 K): 3.55; logP at 2 days [2, 7]: 3.6; logD at 2 days [2, 7]: 2.65 |
| O=c1c2sc(=S)n(-c3ccc(F)cc3)c2ncn1CCCN1CCN(CC(O)(Cn2cncn2)c2ccc(F)cc2F)CC1 (centres unmarked) [II, 6-[3-[4-[2-(2,4-difluorophenyl)-2-hydroxy-3-(1H-1,2,4-triazol-1-yl)propyl]-1-piperazinyl]propyl]-2,3-dihydro-3-(4-fluorophenyl)-2-thioxo-thiazolo[4,5-d]pyrimidin-7(6H)-one] | 20 | 3.39 mol∙L^−1 (printed as so × 10^3 | 2.67 mole fraction (printed as xb × | 5.34 mole fraction (printed as xo × | 3.39 mol∙L^−1 (printed as so × 10^3 | 2.45 mole fraction (printed as xb × | 5.37 mole fraction (printed as xo × | 3.39 mol∙L^−1 (printed as so × 10^3 | 5.39 mole fraction (printed as xo × | 3.39 mol∙L^−1 (printed as so × 10^3 | 2.08 mole fraction (printed as xb × | 5.42 mole fraction (printed as xo × | 2.47 | 3.39 mol∙L^−1 (printed as so × 10^3 | 1.94 mole fraction (printed as xb × | 5.44 mole fraction (printed as xo × | 7.62 ± 0.19 | -4.57 ± 0.072 | 3.06 ± 0.048 | 106.9 ± 2.9 | MIC (C. glabrata 61L; C. glabrata 61L, 35 °C, read-out: MIC): 4 µg/mL (≈ 6.22 µM); MIC ([1]; ATCC22019, C. parapsilosis ATCC 22019, 35 °C, 24 h, read-out: MIC): 0.1 µg/mL (≈ 0.156 µM); activity relative to fluconazole (C. utilis 84; C. utilis 84): 2 times; MIC (C. utilis 84; Williopsis jadinii, C. utilis 84, 35 °C, 24 h, read-out: MIC): 1 µg/mL (≈ 1.56 µM); logP at 2 days [2, 8]: 3.3; logD at 2 days [2, 8]: 2.36; logP at 2 days ([2]; 1-octanol/buffer pH 7.4, pH 7.4, 1-octanol/buffer pH 7.4, 298.15 K): 3.34; logP at 2 days [2, 9]: 3.37; logD at 2 days [2, 9]: 2.43; logP at 2 days ([2]; 1-octanol/buffer pH 7.4, pH 7.4, 1-octanol/buffer pH 7.4, 308.15 K): 3.41; logP at 2 days [2, 10]: 3.45; logD at 2 days [2, 10]: 2.5; sb × 10^5 (concentration in buffer) ([2]; 293.15 K): 1.47 mol∙L^−1 (printed as sb × 10^5; sb × 10^5 (concentration in buffer) ([2]; 298.15 K): 1.35 mol∙L^−1 (printed as sb × 10^5; logPo/b ([2]; 298.15 K): 2.40; sb × 10^5 (concentration in buffer) ([2]; 303.15 K): 1.25 mol∙L^−1 (printed as sb × 10^5; sb × 10^5 (concentration in buffer) ([2]; 308.15 K): 1.15 mol∙L^−1 (printed as sb × 10^5; sb × 10^5 (concentration in buffer) ([2]; 313.15 K): 1.06 mol∙L^−1 (printed as sb × 10^5 |
